Source: PubChem BioAssay AID2060612 (Molecular Pharmacology Branch, DTP, NCI, 2025)
pIC50: −log10 of the molar value.

Test system: 565232-114-T-J1-PDC complex spheroid viability
Assay: Anticancer human tumor 565232-114-T-J1-PDC patient-derived bladder carcinoma cell line growth inhibition [CLK]
Conditions: for pIC50: curve of first compound; for viability, T/C: stronger effect = lower value
Summary of the method: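 Patient-derived tumor cells grown as complex spheroids with HUVEC endothelial cells and mesenchymal stem cells, treated with drug combinations. Concentrations descend in half-log steps from near clinical Cmax, or from 10 microM if Cmax unknown.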

[1] = second compound 0.0316 µM, first compound 0.0316 µM
[2] = second compound 0.0316 µM, first compound 0.1 µM
[3] = second compound 0.0316 µM, first compound 0.316 µM
[4] = second compound 0.0316 µM, first compound 1 µM
[5] = second compound 0.0316 µM, first compound 3.16 µM
[6] = second compound 0.0316 µM, first compound 10 µM
[7] = second compound 0.1 µM, first compound 0.0316 µM
[8] = second compound 0.1 µM, first compound 0.1 µM
[9] = second compound 0.1 µM, first compound 0.316 µM
[10] = second compound 0.1 µM, first compound 1 µM
[11] = second compound 0.1 µM, first compound 3.16 µM
[12] = second compound 0.1 µM, first compound 10 µM
[13] = second compound 0.316 µM, first compound 0.0316 µM
[14] = second compound 0.316 µM, first compound 0.1 µM
[15] = second compound 0.316 µM, first compound 0.316 µM
[16] = second compound 0.316 µM, first compound 1 µM
[17] = second compound 0.316 µM, first compound 3.16 µM
[18] = second compound 0.316 µM, first compound 10 µM
[19] = second compound 1 µM, first compound 0.0316 µM
[20] = second compound 1 µM, first compound 0.1 µM
[21] = second compound 1 µM, first compound 0.316 µM
[22] = second compound 1 µM, first compound 1 µM
[23] = second compound 1 µM, first compound 3.16 µM
[24] = second compound 1 µM, first compound 10 µM
[25] = second compound 3.16 µM, first compound 0.0316 µM
[26] = second compound 3.16 µM, first compound 0.1 µM
[27] = second compound 3.16 µM, first compound 0.316 µM
[28] = second compound 3.16 µM, first compound 1 µM
[29] = second compound 3.16 µM, first compound 3.16 µM
[30] = second compound 3.16 µM, first compound 10 µM
[31] = second compound 10 µM, first compound 0.0316 µM
[32] = second compound 10 µM, first compound 0.1 µM
[33] = second compound 10 µM, first compound 0.316 µM
[34] = second compound 10 µM, first compound 1 µM
[35] = second compound 10 µM, first compound 3.16 µM
[36] = second compound 10 µM, first compound 10 µM
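Note: spheroids exposed to compounds for 7 days before readout.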
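Throughout, for viability, T/C: 100% = DMSO vehicle wells with luminescence normalized to vehicle control.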

C=CC(=O)Nc1cc(Nc2nccc(-c3cn(C)c4ccccc34)n2)c(OC)cc1N(C)CCN(C)C + CN1CCN(c2cc(C(=O)Nc3cc4cc(-c5cnn(C)c5)ccc4cn3)ccn2)CC1
pIC50 (second compound 0.0316 µM): < 6.52 | pIC50 (second compound 0.1 µM): < 6.52 | pIC50 (second compound 0.316 µM): > 9.02 | pIC50 (second compound 1 µM): > 9.02 | pIC50 (second compound 3.16 µM): > 9.02 | pIC50 (second compound 10 µM): > 9.02 | viability, T/C (second compound 0.0316 µM, first compound 0.000949 µM): 104% | viability, T/C (second compound 0.0316 µM, first compound 0.003 µM): 95.3% | viability, T/C (second compound 0.0316 µM, first compound 0.00949 µM): 106% | viability, T/C (second compound 0.0316 µM, first compound 0.03 µM): 84.1% | viability, T/C (second compound 0.0316 µM, first compound 0.0949 µM): 90.6% | viability, T/C (second compound 0.0316 µM, first compound 0.3 µM): 83.7% | viability, T/C (second compound 0.1 µM, first compound 0.000949 µM): 97.5% | viability, T/C (second compound 0.1 µM, first compound 0.003 µM): 85.8% | viability, T/C (second compound 0.1 µM, first compound 0.00949 µM): 110% | viability, T/C (second compound 0.1 µM, first compound 0.03 µM): 89.3% | viability, T/C (second compound 0.1 µM, first compound 0.0949 µM): 97.9% | viability, T/C (second compound 0.1 µM, first compound 0.3 µM): 94.5% | viability, T/C (second compound 0.316 µM, first compound 0.000949 µM): 14.9% | viability, T/C (second compound 0.316 µM, first compound 0.003 µM): 20.3% | viability, T/C (second compound 0.316 µM, first compound 0.00949 µM): 20.1% | viability, T/C (second compound 0.316 µM, first compound 0.03 µM): 20.5% | viability, T/C (second compound 0.316 µM, first compound 0.0949 µM): 18.7% | viability, T/C (second compound 0.316 µM, first compound 0.3 µM): 18.3% | viability, T/C (second compound 1 µM, first compound 0.000949 µM): 0.2% | viability, T/C (second compound 1 µM, first compound 0.003 µM): 0.26% | viability, T/C (second compound 1 µM, first compound 0.00949 µM): 1.8% | viability, T/C (second compound 1 µM, first compound 0.03 µM): 0.2% | viability, T/C (second compound 1 µM, first compound 0.0949 µM): 0.2% | viability, T/C (second compound 1 µM, first compound 0.3 µM): 1.48% | viability, T/C (second compound 3.16 µM, first compound 0.000949 µM): 0.23% | viability, T/C (second compound 3.16 µM, first compound 0.003 µM): 0.22% | viability, T/C (second compound 3.16 µM, first compound 0.00949 µM): 1.48% | viability, T/C (second compound 3.16 µM, first compound 0.03 µM): 0.22% | viability, T/C (second compound 3.16 µM, first compound 0.0949 µM): 0.91% | viability, T/C (second compound 3.16 µM, first compound 0.3 µM): 0.82% | viability, T/C (second compound 10 µM, first compound 0.000949 µM): 0.23% | viability, T/C (second compound 10 µM, first compound 0.003 µM): 0.26% | viability, T/C (second compound 10 µM, first compound 0.00949 µM): 1.25% | viability, T/C (second compound 10 µM, first compound 0.03 µM): 1.11% | viability, T/C (second compound 10 µM, first compound 0.0949 µM): 1.9% | viability, T/C (second compound 10 µM, first compound 0.3 µM): 1.19%

CC(CO)NC(=O)c1cc(-c2ccc(Cl)cc2)nn(-c2cnn(C)c2)c1=O (stereo unspecified) + CNC(=O)c1ccc(Nc2nc(OC3CCCC3)c3c(-c4ccc5nc(C)oc5c4)c[nH]c3n2)c(OC)c1
pIC50 (second compound 0.0316 µM): < 5.00 | pIC50 (second compound 0.1 µM): 6.88 | pIC50 (second compound 0.316 µM): > 7.50 | pIC50 (second compound 1 µM): > 7.50 | pIC50 (second compound 3.16 µM): > 7.50 | pIC50 (second compound 10 µM): > 7.50 | viability, T/C [1]: 85.2% | viability, T/C [2]: 74.3% | viability, T/C [3]: 79.8% | viability, T/C [4]: 83% | viability, T/C [5]: 97.6% | viability, T/C [6]: 117% | viability, T/C [7]: 50.5% | viability, T/C [8]: 51.3% | viability, T/C [9]: 48.8% | viability, T/C [10]: 47.1% | viability, T/C [11]: 51% | viability, T/C [12]: 45.4% | viability, T/C [13]: 35% | viability, T/C [14]: 26.5% | viability, T/C [15]: 32.5% | viability, T/C [16]: 36.1% | viability, T/C [17]: 37.7% | viability, T/C [18]: 34% | viability, T/C [19]: 22.1% | viability, T/C [20]: 23.6% | viability, T/C [21]: 23.7% | viability, T/C [22]: 21.1% | viability, T/C [23]: 23.5% | viability, T/C [24]: 22.5% | viability, T/C [25]: 17.5% | viability, T/C [26]: 18.2% | viability, T/C [27]: 19.7% | viability, T/C [28]: 18.2% | viability, T/C [29]: 22% | viability, T/C [30]: 19% | viability, T/C [31]: 19.9% | viability, T/C [32]: 18.1% | viability, T/C [33]: 18.4% | viability, T/C [34]: 16.2% | viability, T/C [35]: 18.4% | viability, T/C [36]: 17.7%

C#Cc1c(F)ccc2cc(O)cc(-c3ncc4c(N5CC6CCC(C5)N6)nc(OCC56CCCN5CC(F)C6)nc4c3F)c12 (stereo unspecified) + CNC(=O)c1ccc(Nc2nc(OC3CCCC3)c3c(-c4ccc5nc(C)oc5c4)c[nH]c3n2)c(OC)c1
pIC50 (second compound 0.0316 µM): < 5.00 | pIC50 (second compound 0.1 µM): > 7.50 | pIC50 (second compound 0.316 µM): > 7.50 | pIC50 (second compound 1 µM): > 7.50 | pIC50 (second compound 3.16 µM): > 7.50 | pIC50 (second compound 10 µM): > 7.50 | viability, T/C [1]: 78.9% | viability, T/C [2]: 67.7% | viability, T/C [3]: 95.5% | viability, T/C [4]: 75.6% | viability, T/C [5]: 119% | viability, T/C [6]: 89.6% | viability, T/C [7]: 49.6% | viability, T/C [8]: 46.9% | viability, T/C [9]: 45.9% | viability, T/C [10]: 53.2% | viability, T/C [11]: 51.5% | viability, T/C [12]: 44.2% | viability, T/C [13]: 33.3% | viability, T/C [14]: 31.7% | viability, T/C [15]: 28.9% | viability, T/C [16]: 28.1% | viability, T/C [17]: 31.5% | viability, T/C [18]: 23% | viability, T/C [19]: 25.8% | viability, T/C [20]: 25.6% | viability, T/C [21]: 22.3% | viability, T/C [22]: 17.4% | viability, T/C [23]: 21.5% | viability, T/C [24]: 17.3% | viability, T/C [25]: 18.6% | viability, T/C [26]: 16.2% | viability, T/C [27]: 18.8% | viability, T/C [28]: 16.4% | viability, T/C [29]: 16.4% | viability, T/C [30]: 11.6% | viability, T/C [31]: 18.6% | viability, T/C [32]: 17.3% | viability, T/C [33]: 12.3% | viability, T/C [34]: 14.8% | viability, T/C [35]: 19.7% | viability, T/C [36]: 9.9%
